Measurements: patent publication US20260242419A1, “A CYCLIC PEPTIDE FOR TRAPPING INTERLEUKIN-1 BETA” (Merck Sharp & Dohme LLC, priority 2023, published 2026)
Starred links: 1 amine or outer side, 2 acyl side, 3 side chain; linkers in the order of their positions; H or OH if unused. Non-standard residues stand in square brackets, D forms with d. Residues, ends and D or L forms follow the SMILES beside them. dPro(4R-(4-pyridylmethyl)) = O=C(O)[C@H]1C[C@@H](Cc2ccncc2)CN1; Trp(βS-Me,4-F) = C[C@@H](c1c[nH]c2cccc(F)c12)[C@H](N)C(=O)O; Bip(4'-COOH) = N[C@@H](Cc1ccc(-c2ccc(C(=O)O)cc2)cc1)C(=O)O; X4 = O=C([C@H]1[C@@H](Cc2ccncc2)CCN1[*:1])[*:2]; Ala(pyrimidin-5-yl) = N[C@@H](Cc1cncnc1)C(=O)O; Phe(4-COOH) = N[C@@H](Cc1ccc(C(=O)O)cc1)C(=O)O; Bip = N[C@@H](Cc1ccc(-c2ccccc2)cc1)C(=O)O; Pro(cis-4-F) = O=C(O)[C@@H]1C[C@H](F)CN1; dPhe(4-F) = N[C@H](Cc1ccc(F)cc1)C(=O)O; Dap(CONH2) = NC(=O)NC[C@H](N)C(=O)O; d(αMeD) = C[C@@](N)(CC(=O)O)C(=O)O; 4Pal = N[C@@H](Cc1ccncc1)C(=O)O; d3Pal = N[C@H](Cc1cccnc1)C(=O)O; dCha = N[C@H](CC1CCCCC1)C(=O)O; NMeDab = CN[C@@H](CCN)C(=O)O; dCba = N[C@H](CC1CCC1)C(=O)O; dOrn = NCCC[C@@H](N)C(=O)O; dDab = NCC[C@@H](N)C(=O)O; dDap = NC[C@@H](N)C(=O)O; Dab = NCC[C@H](N)C(=O)O; Aib = CC(C)(N)C(=O)O

biological target: T1, IL-1β (Homo sapiens, UniProt P01584); test: IL-6 assay in MRC5 cells: inhibition of IL-1β induced IL-6 secretion (AlphaLISA); format: cell-based; settings: inhibition of IL-1β induced IL-6 secretion in MRC5 cells; compound pre-incubated 1 hour with recombinant human IL-1β; read-out: MRC5 IC50
T1 construct: purchased BioLegend 579404
T1 sequence (P01584 117-269): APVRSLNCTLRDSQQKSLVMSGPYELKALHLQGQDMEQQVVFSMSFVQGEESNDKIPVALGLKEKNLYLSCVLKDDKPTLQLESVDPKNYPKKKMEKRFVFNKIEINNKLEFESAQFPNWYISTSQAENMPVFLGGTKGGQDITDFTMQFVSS
How it was run: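 Compound was pre-incubated 1 h at ambient temperature with recombinant human IL-1β at 2λ EC80 before adding human lung fibroblast MRC5 cells (3000/well) in EMEM with 0.025% BSA. After overnight culture at 37 °C, 5% CO2, secreted IL-6 in conditioned medium was measured by AlphaLISA; IC50 from 4-parameter logistic fits.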

SMILES	IC50
C[C@@H](c1c[nH]c2cccc(F)c12)[C@@H]1NC(=O)[C@@H]2C[C@H](F)CN2C(=O)CNC(=O)[C@H](Cc2ccc(C(=O)O)cc2)NC(=O)[C@H](Cc2ccncc2)NC(=O)[C@H](Cc2ccc(-c3ccc(C(=O)O)cc3)cc2)NC(=O)[C@H]2[C@@H](Cc3ccncc3)CCN2C(=O)CNC(=O)[C@H](CCN)NC(=O)[C@H](CCC(N)=O)NC(=O)[C@@H](Cc2ccc(F)cc2)NC(=O)[C@@](C)(CC(=O)O)NC(=O)[C@H](Cc2c[nH]c3ccccc23)NC(=O)[C@H](CO)NC(=O)C(C)(C)NC1=O [Example 236] (cyclo([Bip(4'-COOH)][4Pal][Phe(4-COOH)]G[Pro(cis-4-F)][Trp(βS-Me,4-F)][Aib]SW[d(αMeD)][dPhe(4-F)]Q[Dab]G[X4]))	0.021 nM
C[C@@H](c1c[nH]c2cccc(F)c12)[C@@H]1NC(=O)[C@@H]2C[C@H](F)CN2C(=O)CNC(=O)[C@H](Cc2ccc(C(=O)O)cc2)NC(=O)[C@H](Cc2ccncc2)NC(=O)[C@H](Cc2ccc(-c3ccc(C(=O)O)cc3)cc2)NC(=O)[C@H]2[C@@H](Cc3ccncc3)CCN2C(=O)CNC(=O)[C@H](CCN)NC(=O)[C@H](CCC(N)=O)NC(=O)[C@@H](CC2CCCCC2)NC(=O)[C@@](C)(CC(=O)O)NC(=O)[C@H](Cc2c[nH]c3ccccc23)NC(=O)[C@H](CO)NC(=O)C(C)(C)NC1=O [Example 237] (cyclo([Bip(4'-COOH)][4Pal][Phe(4-COOH)]G[Pro(cis-4-F)][Trp(βS-Me,4-F)][Aib]SW[d(αMeD)][dCha]Q[Dab]G[X4]))	0.025 nM
CC(C)C[C@H]1NC(=O)[C@@](C)(CC(=O)O)NC(=O)[C@H](Cc2c[nH]c3ccccc23)NC(=O)[C@H](CO)NC(=O)C(C)(C)NC(=O)[C@H]([C@@H](C)c2c[nH]c3cccc(F)c23)NC(=O)[C@@H]2C[C@H](F)CN2C(=O)CNC(=O)[C@H](Cc2ccc(C(=O)O)cc2)NC(=O)[C@H](Cc2ccncc2)NC(=O)[C@H](Cc2ccc(-c3ccc(C(=O)O)cc3)cc2)NC(=O)[C@H]2[C@@H](Cc3ccncc3)CCN2C(=O)CNC(=O)[C@H](CCN)NC(=O)[C@H](CCC(N)=O)NC1=O [Example 238] (cyclo([Bip(4'-COOH)][4Pal][Phe(4-COOH)]G[Pro(cis-4-F)][Trp(βS-Me,4-F)][Aib]SW[d(αMeD)][dL]Q[Dab]G[X4]))	0.024 nM
C[C@@H](c1c[nH]c2cccc(F)c12)[C@@H]1NC(=O)[C@@H]2C[C@H](F)CN2C(=O)CNC(=O)[C@H](Cc2ccc(C(=O)O)cc2)NC(=O)[C@H](Cc2ccncc2)NC(=O)[C@H](Cc2ccc(-c3ccc(C(=O)O)cc3)cc2)NC(=O)[C@H]2[C@@H](Cc3ccncc3)CCN2C(=O)CNC(=O)[C@H](CCN)NC(=O)[C@H](CCC(N)=O)NC(=O)[C@@H](CC2CCC2)NC(=O)[C@@](C)(CC(=O)O)NC(=O)[C@H](Cc2c[nH]c3ccccc23)NC(=O)[C@H](CO)NC(=O)C(C)(C)NC1=O [Example 239] (cyclo([Bip(4'-COOH)][4Pal][Phe(4-COOH)]G[Pro(cis-4-F)][Trp(βS-Me,4-F)][Aib]SW[d(αMeD)][dCba]Q[Dab]G[X4]))	0.02 nM
C[C@@H](c1c[nH]c2cccc(F)c12)[C@@H]1NC(=O)[C@@H]2C[C@H](F)CN2C(=O)CNC(=O)[C@H](Cc2ccc(C(=O)O)cc2)NC(=O)[C@H](Cc2ccncc2)NC(=O)[C@H](Cc2ccc(-c3ccc(C(=O)O)cc3)cc2)NC(=O)[C@H]2[C@@H](Cc3ccncc3)CCN2C(=O)CNC(=O)[C@H](CCN)NC(=O)[C@H](CCC(N)=O)NC(=O)[C@@H](Cc2cccnc2)NC(=O)[C@@](C)(CC(=O)O)NC(=O)[C@H](Cc2c[nH]c3ccccc23)NC(=O)[C@H](CO)NC(=O)C(C)(C)NC1=O [Example 240] (cyclo([Bip(4'-COOH)][4Pal][Phe(4-COOH)]G[Pro(cis-4-F)][Trp(βS-Me,4-F)][Aib]SW[d(αMeD)][d3Pal]Q[Dab]G[X4]))	0.025 nM
C[C@@H](c1c[nH]c2cccc(F)c12)[C@@H]1NC(=O)[C@@H]2C[C@H](F)CN2C(=O)CNC(=O)[C@H](Cc2ccc(C(=O)O)cc2)NC(=O)[C@H](Cc2ccncc2)NC(=O)[C@H](Cc2ccc(-c3ccc(C(=O)O)cc3)cc2)NC(=O)[C@H]2[C@@H](Cc3ccncc3)CCN2C(=O)CNC(=O)[C@H](CCN)N(C)C(=O)[C@H](CCC(N)=O)NC(=O)[C@H](Cc2cncnc2)NC(=O)C(C)(C)NC(=O)[C@H](Cc2c[nH]c3ccccc23)NC(=O)[C@H](CO)NC(=O)C(C)(C)NC1=O [Example 241] (cyclo([Bip(4'-COOH)][4Pal][Phe(4-COOH)]G[Pro(cis-4-F)][Trp(βS-Me,4-F)][Aib]SW[Aib][Ala(pyrimidin-5-yl)]Q[NMeDab]G[X4]))	0.018 nM
C[C@@H](c1c[nH]c2cccc(F)c12)[C@@H]1NC(=O)[C@@H]2C[C@H](F)CN2C(=O)CNC(=O)[C@H](Cc2ccc(C(=O)O)cc2)NC(=O)[C@H](Cc2ccncc2)NC(=O)[C@H](Cc2ccc(-c3ccc(C(=O)O)cc3)cc2)NC(=O)[C@H]2C[C@@H](Cc3ccncc3)CN2C(=O)CNC(=O)[C@H](CCN)NC(=O)[C@H](CCC(N)=O)NC(=O)[C@@H](CO)NC(=O)[C@@](C)(CC(=O)O)NC(=O)[C@H](Cc2c[nH]c3ccccc23)NC(=O)[C@H](CO)NC(=O)C(C)(C)NC1=O [Example 242] (cyclo([Bip(4'-COOH)][4Pal][Phe(4-COOH)]G[Pro(cis-4-F)][Trp(βS-Me,4-F)][Aib]SW[d(αMeD)][dS]Q[Dab]G[dPro(4R-(4-pyridylmethyl))]))	0.019 nM
C[C@@H](c1c[nH]c2cccc(F)c12)[C@@H]1NC(=O)[C@@H]2C[C@H](F)CN2C(=O)CNC(=O)[C@H](Cc2ccc(C(=O)O)cc2)NC(=O)[C@H](Cc2ccncc2)NC(=O)[C@H](Cc2ccc(-c3ccc(C(=O)O)cc3)cc2)NC(=O)[C@H]2C[C@@H](Cc3ccncc3)CN2C(=O)CNC(=O)[C@H](CCN)NC(=O)[C@H](CCC(N)=O)NC(=O)[C@@H](Cc2ccccc2)NC(=O)[C@@](C)(CC(=O)O)NC(=O)[C@H](Cc2c[nH]c3ccccc23)NC(=O)[C@H](CO)NC(=O)C(C)(C)NC1=O [Example 243] (cyclo([Bip(4'-COOH)][4Pal][Phe(4-COOH)]G[Pro(cis-4-F)][Trp(βS-Me,4-F)][Aib]SW[d(αMeD)][dF]Q[Dab]G[dPro(4R-(4-pyridylmethyl))]))	0.022 nM
C[C@@H](c1c[nH]c2cccc(F)c12)[C@@H]1NC(=O)[C@@H]2C[C@H](F)CN2C(=O)CNC(=O)[C@H](Cc2ccc(C(=O)O)cc2)NC(=O)[C@H](Cc2ccncc2)NC(=O)[C@H](Cc2ccc(-c3ccccc3)cc2)NC(=O)[C@H]2C[C@@H](Cc3ccncc3)CN2C(=O)CNC(=O)[C@H](CNC(N)=O)NC(=O)[C@H](CCC(N)=O)NC(=O)[C@@H](CCCCN)NC(=O)[C@@](C)(CC(=O)O)NC(=O)[C@H](Cc2c[nH]c3ccccc23)NC(=O)[C@H](CO)NC(=O)C(C)(C)NC1=O [Example 244] (cyclo([Bip][4Pal][Phe(4-COOH)]G[Pro(cis-4-F)][Trp(βS-Me,4-F)][Aib]SW[d(αMeD)][dK]Q[Dap(CONH2)]G[dPro(4R-(4-pyridylmethyl))]))	0.03 nM
C[C@@H](c1c[nH]c2cccc(F)c12)[C@@H]1NC(=O)[C@@H]2C[C@H](F)CN2C(=O)CNC(=O)[C@H](Cc2ccc(C(=O)O)cc2)NC(=O)[C@H](Cc2ccncc2)NC(=O)[C@H](Cc2ccc(-c3ccccc3)cc2)NC(=O)[C@H]2C[C@@H](Cc3ccncc3)CN2C(=O)CNC(=O)[C@H](CNC(N)=O)NC(=O)[C@H](CCC(N)=O)NC(=O)[C@@H](CCCN)NC(=O)[C@@](C)(CC(=O)O)NC(=O)[C@H](Cc2c[nH]c3ccccc23)NC(=O)[C@H](CO)NC(=O)C(C)(C)NC1=O [Example 245] (cyclo([Bip][4Pal][Phe(4-COOH)]G[Pro(cis-4-F)][Trp(βS-Me,4-F)][Aib]SW[d(αMeD)][dOrn]Q[Dap(CONH2)]G[dPro(4R-(4-pyridylmethyl))]))	0.027 nM
C[C@@H](c1c[nH]c2cccc(F)c12)[C@@H]1NC(=O)[C@@H]2C[C@H](F)CN2C(=O)CNC(=O)[C@H](Cc2ccc(C(=O)O)cc2)NC(=O)[C@H](Cc2ccncc2)NC(=O)[C@H](Cc2ccc(-c3ccccc3)cc2)NC(=O)[C@H]2C[C@@H](Cc3ccncc3)CN2C(=O)CNC(=O)[C@H](CNC(N)=O)NC(=O)[C@H](CCC(N)=O)NC(=O)[C@@H](CN)NC(=O)[C@@](C)(CC(=O)O)NC(=O)[C@H](Cc2c[nH]c3ccccc23)NC(=O)[C@H](CO)NC(=O)C(C)(C)NC1=O [Example 246] (cyclo([Bip][4Pal][Phe(4-COOH)]G[Pro(cis-4-F)][Trp(βS-Me,4-F)][Aib]SW[d(αMeD)][dDap]Q[Dap(CONH2)]G[dPro(4R-(4-pyridylmethyl))]))	0.031 nM
C[C@@H](c1c[nH]c2cccc(F)c12)[C@@H]1NC(=O)[C@@H]2C[C@H](F)CN2C(=O)CNC(=O)[C@H](Cc2ccc(C(=O)O)cc2)NC(=O)[C@H](Cc2ccncc2)NC(=O)[C@H](Cc2ccc(-c3ccccc3)cc2)NC(=O)[C@H]2C[C@@H](Cc3ccncc3)CN2C(=O)CNC(=O)[C@H](CNC(N)=O)NC(=O)[C@H](CCC(N)=O)NC(=O)[C@@H](CCN)NC(=O)[C@@](C)(CC(=O)O)NC(=O)[C@H](Cc2c[nH]c3ccccc23)NC(=O)[C@H](CO)NC(=O)C(C)(C)NC1=O [Example 247] (cyclo([Bip][4Pal][Phe(4-COOH)]G[Pro(cis-4-F)][Trp(βS-Me,4-F)][Aib]SW[d(αMeD)][dDab]Q[Dap(CONH2)]G[dPro(4R-(4-pyridylmethyl))]))	0.03 nM
C[C@@H](c1c[nH]c2cccc(F)c12)[C@@H]1NC(=O)[C@@H]2C[C@H](F)CN2C(=O)CNC(=O)[C@H](Cc2ccc(C(=O)O)cc2)NC(=O)[C@H](Cc2ccncc2)NC(=O)[C@H](Cc2ccc(-c3ccccc3)cc2)NC(=O)[C@H]2C[C@@H](Cc3ccncc3)CN2C(=O)CNC(=O)[C@H](CCN)NC(=O)[C@H](CCC(N)=O)NC(=O)[C@@H](CCN)NC(=O)[C@@](C)(CC(=O)O)NC(=O)[C@H](Cc2c[nH]c3ccccc23)NC(=O)[C@H](CO)NC(=O)C(C)(C)NC1=O [Example 248] (cyclo([Bip][4Pal][Phe(4-COOH)]G[Pro(cis-4-F)][Trp(βS-Me,4-F)][Aib]SW[d(αMeD)][dDab]Q[Dab]G[dPro(4R-(4-pyridylmethyl))]))	0.028 nM
